What all share (type): in vivo
For assay [1], the system named is Alopecurus myosuroides (ALOMY), Avena fatua (AVEFA), Lolium perenne (LOLPE), Setaria viridis (SETVI). The assay can be described thus: Glasshouse herbicide efficacy of pinoxaden with adjuvants (Example 3). The following applies: pinoxaden EC, mean over 7.5 and 15 g/ha, three replicates, four weed species; 21 days after application; adjuvants 0.2% v/v; 200 l/ha. The protocol:
(§1) Pinoxaden was added to the spray tank as a standard EC (emulsifiable concentrate) formulation.
Each spray test was replicated three times. […] The results shown in Table 3 below are mean averages over the two rates of pinoxaden, the three replicates and the four weed species.

Assay [2] shares this test system. The assay can be described thus: Glasshouse herbicide efficacy of pinoxaden with adjuvants (Example 7). The following applies: pinoxaden EC, mean over 7.5 and 15 g/ha, three replicates, four weed species; 21 days after application; adjuvants 0.2% v/v; 200 l/ha. The protocol:
as §1
The spray tests were also carried out using pinoxaden in conjunction with Adjuvant 2 or the standard adjuvant tris(2-ethylhexyl) phosphate. […] The weed species were Alopecurus myosuroides (ALOMY), Avena fatua (AVEFA); Lolium perenne (LOLPE) and Setaria viridis (SETVI).
Each spray test was replicated three times. […] The results shown in Table 7 below are mean averages over the two rates of pinoxaden, the three replicates and the four weed species.

Assay [3] shares this test system. Put plainly: Glasshouse herbicide efficacy of pinoxaden with adjuvants (Example 10). The following applies: pinoxaden EC, mean over 7.5 and 15 g/ha, three replicates, four weed species; 21 days after application; adjuvants 0.2% v/v; 200 l/ha. The protocol:
The efficacy of Adjuvant 5 as an adjuvant for the herbicide pinoxaden was tested in a glasshouse against four weed species. Pinoxaden was added to the spray tank as a standard EC (emulsifiable concentrate) formulation.
The spray tests were also carried out using pinoxaden in conjunction with Adjuvant 5, Adjuvant 6 or the standard adjuvant tris(2-ethylhexyl) phosphate. […] The weed species were Alopecurus myosuroides (ALOMY), Avena fatua (AVEFA), Lolium perenne (LOLPE) and Setaria viridis (SETVI). Each spray test was replicated three times. […] The results shown in Table 10 below are mean averages over the two rates of pinoxaden, the three replicates and the four weed species.

Assay [4] deals with Abutilon theophrasti (ABUTH), Chenopodium album (CHEAL), Digitaria sanguinalis (DIGSA), Setaria viridis (SETVI). The assay can be described thus: Glasshouse herbicide efficacy of nicosulfuron with adjuvants (Example 1). The following applies: nicosulfuron WG, mean over 30 and 60 g/ha, three replicates, four weed species; 21 days after application; adjuvants 0.2% v/v, Atplus 411F 0.5% v/v; 200 l/ha. The protocol: (§2) Nicosulfuron was added to the spray tank as a standard WG (water dispersible granule) formulation.
Each spray test was replicated three times. […] The results shown in Table 1 below are mean averages over the two rates of nicosulfuron, the three replicates and the four weed species.

Assay [5] shares this test system. Put plainly: Glasshouse herbicide efficacy of nicosulfuron with adjuvants (Example 5). The following applies: nicosulfuron WG, mean over 30 and 60 g/ha, three replicates, four weed species; 21 days after application; Adjuvant 2 0.2% v/v, Atplus 411F 0.5% v/v; 200 l/ha. The procedure:
as §2
The spray tests were also carried out using nicosulfuron in conjunction with Adjuvant 2 or the commercially available tank-mix adjuvant, Atplus 411F®. […] The weed species were Abutilon theophrasti (ABUTH), Chenopodium album (CHEAL), Digitaria sanguinalis (DIGSA) and Setaria viridis (SETVI).
Each spray test was replicated three times. […] The results shown in Table 5 below are mean averages over the two rates of nicosulfuron, the three replicates and the four weed species.

Assay [6] deals with Polygonum convolvulus (POLCO), Brachiaria plantaginea (BRAPL), Commelina benghalensis (COMBE), Digitaria sanguinalis (DIGSA). The assay can be described thus: Glasshouse herbicide efficacy of mesotrione with adjuvants (Example 2). The conditions noted are these: mesotrione SC, mean over 30 and 60 g/ha, three replicates, four weed species; 21 days after application; adjuvants 0.2% v/v, Tween 20 0.5% v/v; 200 l/ha. The procedure: (§3) Mesotrione was added to the spray tank as a standard SC (suspension concentrate) formulation.
The four weed species were Polygonum convolvulus (POLCO; growth stage 13-15), Brachiaria plantaginea (BRAPL; growth stage 13-21), Commelina benghalensis (COMBE; growth stage 12-13) and Digitaria sanguinalis (DIGSA; growth stage 13-14).
Each spray test was replicated three times. […] The results shown in Table 2 below are mean averages over the two rates of mesotrione, the three replicates and the four weed species.

For assay [7] the test system is unchanged. The assay can be described thus: Glasshouse herbicide efficacy of mesotrione with adjuvants (Example 6). The following applies: mesotrione SC, mean over 30 and 60 g/ha, three replicates, four weed species; 21 days after application; Adjuvant 2 0.2% v/v, Tween 20 0.5% v/v; 200 l/ha. The protocol:
as §3
The spray tests were also carried out using mesotrione in conjunction with Adjuvant 2 or the well-known adjuvant Tween® 20. […] The four weed species were Polygonum convolvulus (POLCO), Brachiaria plantaginea (BRAPL), Commelina benghalensis (COMBE) and Digitaria sanguinalis (DIGSA). Each spray test was replicated three times. […] The results shown in Table 6 below are mean averages over the two rates of mesotrione, the three replicates and the four weed species.

For assay [8] the test system is unchanged. The assay can be described thus: Glasshouse herbicide efficacy of mesotrione with adjuvants (Example 9). The conditions noted are these: mesotrione SC, mean over 30 and 60 g/ha, three replicates, four weed species; 21 days after application; adjuvants 0.2% v/v, Tween 20 0.5% v/v; 200 l/ha. The protocol:
The efficacy of Adjuvant 5 as an adjuvant for the herbicide mesotrione was tested in a glasshouse against four weed species. Mesotrione was added to the spray tank as a standard SC (suspension concentrate) formulation.
The spray tests were also carried out using mesotrione in conjunction with Adjuvant 5, Adjuvant 6 or the well-known adjuvant Tween® 20. […] The four weed species were Polygonum convolvulus (POLCO), Brachiaria plantaginea (BRAPL), Commelina benghalensis (COMBE) and Digitaria sanguinalis (DIGSA).
Each spray test was replicated three times. […] The results shown in Table 9 below are mean averages over the two rates of mesotrione, the three replicates and the four weed species.

Regarding `CCc1cc(C)cc(CC)c1-c1c(OC(=O)C(C)(C)C)n2n(c1=O)CCOCC2` [Pinoxaden, pinoxaden], the “Mean across species % phytotoxicity (mean percentage kill, leaf area killed)” value in assay [1] was 3.6%; in assay [2] it was 3.4%; in assay [3], 7.5%.

As to `COc1cc(OC)nc(NC(=O)NS(=O)(=O)c2ncccc2C(=O)N(C)C)n1` [Nicosulfuron, nicosulfuron], the entries for the “Mean across species % phytotoxicity (mean percentage kill, leaf area killed)” value in assay [4] and in assay [5] were 34.4% and 64.5%, respectively.

On to `CS(=O)(=O)c1ccc(C(=O)C2C(=O)CCCC2=O)c([N+](=O)[O-])c1` [Mesotrione, mesotrione], for which the “Mean across species % phytotoxicity (mean percentage kill, leaf area killed)” value in assay [6] is recorded as 25.6%; in assay [7], 17.8%; in assay [8] it was 27.5%.

(Values after US20200008421A1, “ADJUVANTS” (SYNGENTA PARTICIPATIONS AG, priority 2016, published 2020).)
